Experimental data as given in PubChem BioAssay AID1996.
Values after ≈ are worked out from the molar mass of the structure shown.

Settings: buffer; pH 7.4; 200.0 µM

Structure (SMILES)	solubility kinetic [µg/mL]
CCN(CC)S(=O)(=O)c1cccc(C(=O)NC(C(=O)NCCc2ccccn2)C(C)C)c1 (stereo unspecified)	> 69.1
CCOC(=O)C(=O)N1CCC(Cc2ccccc2)CC1	35.8 (≈ 130 µM)
O=[N+]([O-])c1cccnc1Sc1ccc(Cl)cc1	0.7 (≈ 2.62 µM)
CCCCN(CC)Cc1c(O)ccc2c3c(c(=O)oc12)CCC3	44 (≈ 139 µM)
COc1ccc(NC(=O)N2CCc3ccccc3C2)c(OC)c1	42.3 (≈ 135 µM)
NC(=O)C1(N2CCCCC2)CCN(Cc2nc(-c3cccs3)no2)CC1	> 56.3
O=S(=O)(NC1CN2CCC1CC2)c1ccc(Cl)cc1 (stereo unspecified)	42.6 (≈ 142 µM)
COC(=O)C(NC(=O)C(C)NC(=O)OCc1ccccc1)C(C)C (stereo unspecified)	> 50.5
CCCCn1cnc2c(oc3nc4c(cc32)CCCC4)c1=O	20.6 (≈ 69.3 µM)
CC(NC(=O)c1cc2cc([N+](=O)[O-])ccc2oc1=O)C1CCCO1 (stereo unspecified)	36.5 (≈ 110 µM)
Cc1cc[n+](C(C)C(=O)c2ccc(Cl)cc2)cc1.[Br-] (stereo unspecified)	> 51.1
CCOc1ccc(NC(=O)C2CCN(S(C)(=O)=O)CC2)cc1	20.2 (≈ 61.9 µM)
CCCCNC(=O)CSc1nc(O)cc(=O)n1C1CCCC1	> 48.8
O=C(O)c1cccc(Cl)n1	> 23.6
CCOC(=O)c1c(/N=C/C2C(=O)NC(=O)NC2=O)sc2c1CCC2	5.4 (≈ 15.5 µM)
C/C(=N\O)c1c(O)cc(-c2ccccc2)n(-c2ccccc2)c1=O	> 48.1
Cc1nnc(SCC(=O)O)s1	> 28.5
O=C(OCc1ccccc1Cl)c1cc([N+](=O)[O-])ccc1N1CCOCC1	3.4 (≈ 9.02 µM)
Clc1cc(Cl)cc(NC2=NCCS2)c1	8.8 (≈ 35.6 µM)
O=C(O)/C=C/C(=O)Nc1ccc(-n2nccc2C(F)(F)F)cc1	> 48.8
O=C(c1ccoc1)N1CCCC(Nc2ccc(F)c(F)c2)C1 (stereo unspecified)	44.5 (≈ 145 µM)
CC(/C=C1\SC(=Nc2cccnc2)NC1=O)=C\c1ccccc1	1.7 (≈ 5.29 µM)

Structure (SMILES)	solubility kinetic [µg/mL]
COc1ccc(NC(=O)C2=NN(C3CCS(=O)(=O)C3)C(=O)CC2)cc1S(N)(=O)=O (stereo unspecified)	> 66.7
Cc1cc(C)cc(-n2c(C)nc3cc(C(=O)O)ccc32)c1	35 (≈ 125 µM)
O=C(Cc1cccs1)NCc1ccc(Cl)cc1	23.5 (≈ 88.4 µM)
COc1ccc(/C(N)=N/OC(=O)CC2CCCCC2)cc1OC	19.1 (≈ 59.6 µM)
Cc1ccnc(NC(=O)c2ccc(Cl)c(NC(=O)c3ccccc3C)c2)c1	1 (≈ 2.63 µM)
COc1cc2c(cc1OC)CN(C(=O)/C=C/c1ccc(F)cc1)CC2	46.9 (≈ 137 µM)
COc1cccc(Nc2nc3cc(OC)ccc3cc2C#N)c1	0.2 (≈ 0.655 µM)
CC1CCCCC1NC(=O)COC(=O)c1ccc2c(c1)NC(=O)CS2 (stereo unspecified)	9.8 (≈ 27 µM)
O=C(CC(NC(=O)c1ccccc1)c1ccccc1)NCc1ccccc1 (stereo unspecified)	4.1 (≈ 11.4 µM)
CCN(CC(=O)NCc1cccs1)C(=O)c1ccc(C)o1	> 46
Cc1ccc(C(=O)Nc2c[nH]c(=O)[nH]c2=O)cc1	7.9 (≈ 32.2 µM)
COc1cc2c(cc1OC)CN(c1ncccc1[N+](=O)[O-])CC2	5.6 (≈ 17.8 µM)
Cc1ccc(C)c(OC(=O)CN2C(=O)c3ccccc3C2=O)c1	4 (≈ 12.9 µM)
COc1ccc(C2NC(=O)CCC2[N+](=O)[O-])c(OC)c1OC (stereo unspecified)	> 46.5
CCCNC(=O)COc1ncnc2sccc12	> 37.7
CC(C)(C)NC(=O)c1cccc2c1-c1ccccc1C2=O	29.8 (≈ 107 µM)
CCOc1ccc(OCCCC(=O)NCCOc2ccccc2OC)cc1	> 56
CC(C)c1nc(SCC(=O)Nc2nccs2)c2ccccc2n1	0.6 (≈ 1.74 µM)
NC(=O)c1cccc(-c2cccc(OC(=O)NC3CCCCC3)c2)c1	< 0.4
CC1CN(C(=S)Nc2cccc(Cl)c2)CC(C)O1 (stereo unspecified)	> 42.7
CCN1CCN(C(=O)c2cc3cc(F)ccc3[nH]2)CC1	36.4 (≈ 132 µM)
O=C(Cc1ccccc1F)Nc1ccccc1N1CCCC1	27.8 (≈ 93.2 µM)

Structure (SMILES)	solubility kinetic [µg/mL]
O=C(COc1ccc([N+](=O)[O-])cc1Cl)N1CCc2ccccc21	2.4 (≈ 7.21 µM)
CCCCCCc1c(C)[nH]c2nc3ccccc3n2c1=O	< 0.2
COc1ccc(C(=O)OCC(=O)NC(=O)Nc2ccccc2F)c(OC)c1	2.4 (≈ 6.38 µM)
Cc1ccc(NC(=O)C2CCCN2C(=O)OCc2ccccc2)cc1C (stereo unspecified)	11.5 (≈ 32.6 µM)
O=[N+]([O-])c1ccc(NC2CCCC2)c2ccncc12	3 (≈ 11.7 µM)
Cc1cccc(NS(=O)(=O)c2ccc3[nH]c(=O)oc3c2)c1C	41.9 (≈ 132 µM)
CCOc1cccc(-c2nnc(SCC(=O)NC3CC3)n2C)c1	> 49.9
CCOc1ccccc1N=Cc1c(O)n(C)c(=O)n(C)c1=O	1.1 (≈ 3.63 µM)
CCOC(=O)c1cccc(C(=O)Nc2nc3ccc(OC)cc3s2)n1	< 0.3
Cc1nc2ccccc2n1CC(=O)c1ccccc1	37 (≈ 148 µM)
NC(=O)C1CCN(C(=S)NC2CC3C=CC2C3)CC1 (stereo unspecified)	> 41.9
CCOC(=O)c1ccc(NC(=O)c2cc(=O)[nH]c3ccccc23)cc1	< 0.4
Cn1ccnc1SCC(=O)Nc1cc(F)ccc1F	41.8 (≈ 148 µM)
Cc1cc(OCC(=O)NCCN2CCOCC2)cc(C)c1Cl	> 49
Cc1ccc(S(C)(=O)=NC(=O)NC(=O)c2c(F)cccc2Cl)cc1 (stereo unspecified)	41.1 (≈ 111 µM)
CCOc1ccc(Br)cc1CN(CC)CC.Cl	> 48.4
Cc1ccc(NC(=O)C(c2ccccc2)c2ccccc2)nc1	11.5 (≈ 38 µM)
COCn1c(C(O)c2ccccc2)cc2ccccc21 (stereo unspecified)	38.9 (≈ 146 µM)
c1ccc(CN2CCOCCOCCOCCOCC2)cc1	43.2 (≈ 140 µM)
CCOC(=O)C1CCN(S(=O)(=O)c2ccc(NC(C)=O)c(Cl)c2)CC1	7.3 (≈ 18.8 µM)
C(#CCN1CCCCC1)COCc1ccccc1.Cl	39
CCc1ccc(Nc2ncc3c(n2)CC(C)(C)CC3=O)cc1	1.1 (≈ 3.72 µM)

Structure (SMILES)	solubility kinetic [µg/mL]
O=C(N=C1SC2CS(=O)(=O)CC2N1c1ccccc1)c1ccccc1 (stereo unspecified)	4 (≈ 10.7 µM)
COC(CNc1ncnc2sc(-c3ccccc3)cc12)OC	35.9 (≈ 114 µM)
CCc1cccc(CC)c1-n1c(SCC(=O)N2CCc3ccccc32)nc(O)cc1=O	60 (≈ 138 µM)
CC1CCN(c2ccc([N+](=O)[O-])c(SCCO)c2)CC1	28.4 (≈ 95.8 µM)
Cc1ccc2oc(/N=C(\N)NC(=O)C(C)(C)C)nc2c1	1.2 (≈ 4.37 µM)
O=C(CN1CCCCC1)Nc1nc(-c2ccc(F)c(F)c2)cs1	2 (≈ 5.93 µM)
CC(NC(=O)c1ccc(N)cc1)c1ccccc1 (stereo unspecified)	> 36
Cc1nc2nc(-c3cccs3)[nH]c2cc1Br	3.8 (≈ 12.9 µM)
c1nc(Nc2ccc(N3CCOCC3)cc2)c2ccsc2n1	> 46.9
CCN1C(=O)CCC(C(=O)O)C1c1ccc(OC)cc1 (stereo unspecified)	> 41.6
CC1(C)Cc2nc(NC3CCCCC3)c(C#N)cc2CO1	1.7 (≈ 5.96 µM)
O=C(CCCc1ccccc1)Nc1nccs1	28.5 (≈ 116 µM)
CC(=O)Nc1cccc(NC(=O)COc2ccccc2C)c1	> 44.8
O=C(NCCc1cccs1)C(c1ccccc1)c1ccccc1	1.5 (≈ 4.67 µM)
CC(C)n1c(SCC(=O)Nc2nncs2)nnc1C1CC1	> 48.7
Cc1cc(C(=O)N2CCC(C(N)=O)CC2)c(C)o1	> 37.5
CSc1ccccc1NC(=O)COC(=O)CCc1ccccc1	27.8 (≈ 84.4 µM)
CCC(C)NC(=O)C1c2ccccc2Oc2ccccc21 (stereo unspecified)	1.9 (≈ 6.75 µM)
O=C(CSc1cccc[n+]1[O-])N1CCc2ccccc21	> 43
Cc1cccc(C(=O)N2CCC(c3nc4ccccc4s3)CC2)c1	> 50.5
